The values below come from patent publication US20240238310A1, “MODULATION OF SEX STEROID HORMONE PRODUCTION AND ACTIVITY FOR TREATING AND PREVENTING HERNIAS” (Northwestern University, priority 2020, published 2024).

Entries after “also recorded” stand apart in the source; their conditions may differ.

Test [1] concerns LAMT primary fibroblasts from Arom^hum mice. In words: mRNA levels of estrogen-responsive and fibrotic genes in LAMT primary fibroblasts after E2 antagonist treatment. It counts as cell-based, mouse. The following applies: MPP, pretreated 2 hours before addition of E2 (10 nM). As for the experimental part: FIG. 10. mRNA levels of estrogen-responsive genes [Pgr (A, E) and Greb1 (B, F)] and fibrotic genes [Spon2 (C, G), Kiss1 (D), and Eln (H)] in LAMT primary fibroblasts from Arom^hum mice after treatment with 100 nM ICI 182,780 (ICI) or […] MPP in the presence or absence of E2 (10 nM). Cells were pretreated with ICI 182,780 or MPP for 2 hours before the addition of E2. Veh, vehicle. *P<0.05, **P<0.01. GAPDH mRNA levels served as controls.
Experiment 1a2: Does the general E2 antagonist fulvestrant, which downregulates and blocks ER, or ERα-selective E2 antagonist MPP prevent, arrest or reverse LAMT muscle fibrosis, atrophy and inguinal hernias in male Arom^hum mice? […] Here, we will define whether the effects of E2 on hernia formation in LAMT is mediated via ERα in vivo. We will treat Arom^hum or WT mice with vehicle, fulvestrant (ICI 182,780), or MPP. […] Circulating and muscle tissue E2 levels will be measured using LC-MS^2. To validate the effects of each treatment, protein expression of ERα and E2/ERα target genes (Ccnd1, Pgr, and Greb1), and cell proliferation markers (Ki67 and PCNA) will be determined by IHC and immunoblotting. Fibrotic-related genes (Kiss1, Ren1, Emb, Timp1, Spon2, and Eln), the ECM marker Col1a1, and the myocyte marker Myh will be assessed using qPCR and IHC in LAMT after fulvestrant, MPP, and/or letrozole treatment. […]

Test [2] has as its system Arom^hum mice. The test is described as follows: Reversal of established scrotal hernias and LAMT fibrosis/atrophy in Arom^hum mice. It counts as in vivo, mouse. The following applies: for time required to reverse large hernias, compared to fulvestrant treatment / reversal of large scrotal hernia: Arom^hum mice with large hernias. How it is done:
FIG. 16. […] Arom^hum mice with small to moderate size of hernias were treated with placebo or letrozole for 12 weeks. (A) Schematic diagram depicts the schedule of drug administration. (B) The area of scrotal hernia in Arom^hum mice. (C) Representative photomicrographs of Masson's trichrome-stained LAMT sections of WT and Arom^hum mice. Quantification of the percentage of connective tissue or fibrotic area (D) or myofiber area (E) in WT and Arom^hummice. 10 representative high-power fields were analyzed in each tissue. One-way ANOVA with Tukey's multiple comparison test, **p<0.01, ***p<0.001. Scale bars, […]. n=5 mice per group.
FIG. 17. […] Arom^hum mice with small to moderate size of hernias were treated with placebo or letrozole for 3 weeks. (A) Schematic diagram depicts the schedule of drug administration. (B) The area of scrotal hernia in Arom^hum mice.
FIG. 18. E2/ER antagonist fulvestrant reverses the large size of scrotal hernias and rescues LAMT fibrosis and myocyte atrophy in Arom^hum mice. Arom^hum mice with large size of hernias were treated with placebo or fulvestrant for 12 weeks. (A) Schematic diagram depicts the schedule of drug administration. (B) The area of scrotal hernia in Arom^hum mice. (C) Representative photomicrographs of Masson's trichrome-stained LAMT sections of WT and Arom^hum mice. Quantification of the percentage of connective tissue or fibrotic area (D) in WT and Arom^hum mice. 10 representative high-power fields were analyzed in each tissue. (E) Hydroxyproline content in LAMT of WT and Arom^hum mice treated with fulvestrant. One-way ANOVA with Tukey's multiple comparison test, ***p<0.001, ****p<0.0001. n=5 mice per group.
FIG. 19. Aromatase inhibitor letrozole reverses the large size of scrotal hernias in Arom^hum mice. Arom^hum mice with large size of hernias were treated with placebo or letrozole for 12 weeks. (A) Schematic diagram depicts the schedule of drug administration. (B) The area of scrotal hernia in Arom^hum mice.
FIG. 20. E2/ER antagonist raloxifene reverses the large size of scrotal hernias in Arom^hum mice. Arom^hum mice with large size of hernias were treated with placebo or raloxifene for 3 weeks. (A) Schematic diagram depicts the schedule of drug administration. (B) The area of scrotal hernia in Arom^hum mice.
We treated Arom^hum mice with letrozole for 12 weeks. […] Raloxifene is a selective estrogen receptor modulator (SERM) and is currently used to prevent and treat osteoporosis in postmenopausal women.
We treated Arom^hum mice with fulvestrant for 12 weeks when the hernia area was over 200 mm^2. Large hernias were completely disappeared after 3- to 4-week of fulvestrant administration. […] We measured the total amount of collagen (largely type I and III), a major component of ECM, through measuring the content of hydroxyproline(1).

Another test deals with LAMT WT fibroblasts. In words: R1881 treatment of primary fibroblasts, western blot (AR, PCNA). It counts as cell-based, mouse. To be noted: for increase in PCNA levels (densitometry normalized to GAPDH): preliminary data. (In general: A western blot detects proteins with antibodies after separation by electrophoresis.)
For test [3], the system named is LAMT Arom^Hum fibroblasts. The description is as above. The following applies: for increase in PCNA levels (densitometry normalized to GAPDH): preliminary data. It counts as cell-based, mouse.
Protocol: (§1) Primary fibroblasts were isolated from LAMT from WT and Arom^Hum mice (n=5/genotype). Cells were treated for 24 hours with increasing doses (0.001, 0.01, 0.1, 1, 5, 10, and 100 nM) of R1881, a synthetic androgen, and compared to untreated cells by western blot.
Another test relates to LAMT E2. In words: Serum and LAMT estradiol (E2) by LC-MS^2 after letrozole treatment. It counts as in vivo, mouse. The following applies: Arom^hum mice, letrozole 10 μg daily SC pellets starting at week 3. How it is done:
FIG. 4. (A) Serum estradiol (E2) and (B) LAMT E2 were measured by liquid chromatography-tandem mass spectrometry (LC-MS^2) assay after letrozole (let) treatment (n=10/group). *p<0.05. **p<0.01. Veh, vehicle.
LAMT estrogen levels are increased in Arom^hum mice. Arom^hum mice recapitulate the primary aspects of aromatase expression in men in that most peripheral (extragonadal) tissues, such as skeletal muscle and adipose tissue, express aromatase primarily using the distal promoter 1.4 and, to a lesser extent, the proximal promoter II (FIG. 3)^32. […] Local E2 levels in LAMT, however, are strikingly higher in Arom^hum mice than in WT mice (FIG. 4B).
Increased LAMT estrogen levels are associated with LAMT fibrosis, myocyte atrophy, and inguinal hernia development; aromatase inhibitor prevents hernia formation in Arom^hum mice. […]
Experiment 1a1: Does aromatase inhibition arrest or reverse LAMT fibrosis, atrophy, and hernia in male Arom^hum mice? […] Hernia development will be monitored by visual inspection twice a week for 12 weeks after letrozole administration and will be reported as hernia incidence using Kaplan-Meier curve analysis. The length and width of the observed hernias will be measured to calculate the surface area (length×width). […] Circulating and tissue (LAMT and UAMT) E2 levels will be measured at the IIT Research Institute by Dr. Miguel Muzzio (see letter) using LC-MS^2. […]

Test [4] concerns Arom^hum mice. The test is described as follows: Prevention of inguinal hernia, LAMT fibrosis and atrophy in Arom^hum mice (treatment started before hernia formation). It counts as in vivo, mouse. The source says:
Increased LAMT estrogen levels are associated with LAMT fibrosis, myocyte atrophy, and inguinal hernia development; aromatase inhibitor prevents hernia formation in Arom^hum mice. […] None of the WT littermates (n=32) developed hernia.
In the mouse, the scrotum is connected to the peritoneal cavity with a narrow funicular (or inguinal) canal, whose walls are composed of LAMT. Structurally normal LAMT is essential to maintain the tone of this canal and prevents herniation of bowel. LAMT is the critical site affected by E2 excess (FIGS. 2, 5, 6). As in many other tissues, stromal cells intimately interact with parenchymal cells (myocytes) in UAMT and LAMT (FIG. 6). […] Administration of the aromatase inhibitor letrozole started at 3 weeks of age for 12 weeks prevented LAMT atrophy, fibrosis and herniation in all (10 out of 10) treated Arom^hum mice (FIG. 6B).
Experiment 1a1: Does aromatase inhibition arrest or reverse LAMT fibrosis, atrophy, and hernia in male Arom^hum mice? […] The hernias will be classified as mild, early moderate, late moderate and severe if the bulging area through muscle tissue is <100 mm^2 (˜4 weeks), 100-150 mm^2 (˜6 weeks), 150-200 mm^2 (˜8 weeks), or >200 mm^2 (˜10 weeks), respectively. First, we will treat Arom^hum mice showing mild hernias with letrozole (SC 10 μg/day release pellet) or vehicle starting at 4 weeks of age for 12 weeks^63. We will assess whether muscle fibrosis, atrophy, and hernia can be arrested or reversed in mildly (<100 mm^2) affected animals. If early letrozole treatment can arrest mild muscle fibrosis, we will delay the initiation of treatment to 6, 8, or 10 weeks of age to determine whether letrozole can arrest or reverse the growth of the early moderate (6 weeks), late moderate (8 weeks) or severe hernia (10 weeks). Hernia development will be monitored by visual inspection twice a week for 12 weeks after letrozole administration and will be reported as hernia incidence using Kaplan-Meier curve analysis. The length and width of the observed hernias will be measured to calculate the surface area (length×width). After completion of the treatment, the mice will be dissected, and LAMT, UAMT (control), and serum will be collected. One hundred mg of frozen muscle tissue will be obtained to measure tissue estrogen levels. Circulating and tissue (LAMT and UAMT) E2 levels will be measured at the IIT Research Institute by Dr. Miguel Muzzio (see letter) using LC-MS^2. We will use immunoblotting and IHC to determine ERα expression in LAMT and UAMT.
This finding was published in PNAS in Oct., 2018. […] We treated Arom^hum mice with fulvestrant for 12 weeks starting at the age of 4 weeks (before hernia formation). As expected, placebo-treated Arom^hum mice developed scrotal hernias.

[5] abbreviates: R1881 0.001-100 nM, 24 hours, western blot.
Setting [6] is: Arom^hum mice with small to moderate hernias, letrozole for 12 weeks.

Protocol for LAMT WT fibroblasts: as §1

For the compound `Cc1c(-c2ccc(O)cc2)nn(-c2ccc(O)cc2)c1-c1ccc(OCCN2CCCCC2)cc1` [MPP, Methyl-Piperidino-Pyrazole], the “E2-induced expression of estrogen-responsive genes (Pgr and Greb1) and fibrotic genes (Spon2, Kiss1, Eln)” value in test [1] is “significantly decreased E2-induced expression of estrogen-responsive genes (Pgr and Greb1) and fibrotic genes (Spon2, Kiss1 and, Eln)”.

For `O=C(c1ccc(OCCN2CCCCC2)cc1)c1c(-c2ccc(O)cc2)sc2cc(O)ccc12` [raloxifene], in the test on Arom^hum mice [2], the “time required to reverse large hernias, compared to fulvestrant treatment” value was “require a longer time to reverse large hernias as compared to fulvestrant treatment”. The “reversal of large scrotal hernia” value in the test on Arom^hum mice [2] (raloxifene for 3 weeks, FIG. 20) is listed as “reverses large scrotal hernia”. Moreover, the “reversal of small to large hernias” value in the test on Arom^hum mice [2] (Arom^hum mice, 3-week raloxifene treatment, FIGS. 17 and 20) was “capable to reverse small to large hernias”. In addition, the “reversal of mild to moderate size of hernia” value with Arom^hum mice [2] (Arom^hum mice, raloxifene for 21 days, FIG. 17) is recorded as “can also reverse mild to moderate size of hernia; also recorded: reverses the small to moderate size of scrotal hernias”.

Turning to `C[C@]1(O)CC[C@H]2[C@@H]3CCC4=CC(=O)CCC4=C3C=C[C@@]21C` [R1881, (17b)-17-Hydroxy-17-methyl-estra-4,9,11-trien-3-one], the “increase in PCNA levels (densitometry normalized to GAPDH)” value in the test on LAMT WT fibroblasts (0.001 nM R1881, 24 hours) is on record as 80%; with LAMT WT fibroblasts (0.01 nM R1881, 24 hours), 60%; in test [3] (0.001 nM R1881, 24 hours), 20%; in test [3] (0.01 nM R1881, 24 hours), 30%. Besides, the “decrease in PCNA levels” value in the test on LAMT WT fibroblasts (100 nM R1881, 24 hours) is 25%; in test [3] (10 nM R1881, 24 hours), 40%; in test [3] (100 nM R1881, 24 hours), 30%. Further, the AR levels result (in the test on LAMT WT fibroblasts (setting [5]); in test [3] (setting [5])) was “increased AR levels in a dose-dependent manner” in each case.

For the compound `N#Cc1ccc(C(c2ccc(C#N)cc2)n2cncn2)cc1` [letrozole], in the test on LAMT E2, the “LAMT E2 levels” value is reported as “restored LAMT E2 levels similar to WT LAMT levels”. Also, in the test with Arom^hum mice [4] (Arom^hum male mice, letrozole 10 μg daily via subcutaneous slow-release pellets starting at week 3, 12 weeks), the hernia development entry is “entirely prevented LAMT fibrosis or inguinal hernia development in all animals; also recorded: prevented hernia development in all Arom^hum mice; also recorded: prevents abdominal bulging, LAMT stromal fibrosis, myocyte atrophy, and inguinal hernias in three lines of Arom^hum mice; also recorded: completely prevented the formation of inguinal hernias”. Besides, the “ECM content in LAMT” value with Arom^hum mice [4] (Arom^hum mice) is “significantly decreased”. The “development of LAMT fibrosis (fibrotic area, Masson's trichrome)” value with Arom^hum mice [4] (Arom^hum mice, 4-week-old mice treated for 12 weeks, FIGS. 15C and D) was “completely prevented with letrozole treatment”. The “stromal cell proliferative activity (Ki67-positive stromal cells) in LAMT” value with Arom^hum mice [4] (Arom^hum mice, FIG. 7E) is recorded as “significantly decreased stromal cell proliferative activity”. Besides, the “LAMT atrophy and fibrosis (Masson's trichrome staining)” value in the test with Arom^hum mice [4] (Arom^hum mice, letrozole, FIG. 6B) is “prevented LAMT atrophy and fibrosis”. The “treated mice in which LAMT atrophy, fibrosis and herniation were prevented” value in the test on Arom^hum mice [4] (Arom^hum mice, started at 3 weeks of age for 12 weeks) is listed as 10 out of 10. Besides, the “time required to reverse large hernias, compared to fulvestrant treatment” value in the test on Arom^hum mice [2] was “require a longer time to reverse large hernias as compared to fulvestrant treatment”. Moreover, the “reversal of large scrotal hernia” value with Arom^hum mice [2] (letrozole for 12 weeks, FIG. 19) is listed as “reverses large scrotal hernia”. Besides, in the test with Arom^hum mice [2] (setting [6]), the muscle fibrosis result is listed as “reduction in muscle fibrosis” and the myocyte size result is recorded as “restoration of myocyte size”. In the test on Arom^hum mice [2] (Arom^hum mice, letrozole for 12 weeks, FIG. 16), the “reversal of mild to moderate size of hernia (150-200 mm^2)” value is listed as “can reverse mild to moderate size of hernia”.
